ChEMBL document CHEMBL1201862, “PubChem BioAssay data set” (2004)
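Tested at 5 concentrations; 48 h exposure; 96-well plates; endpoints linearly interpolated, else capped at highest concentration. GI50 marks 50% less growth.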 Calls of active or inactive are those of the source. Cut-off read from the data, not from the text of the source: active = GI50 up to about 1.1 µM and inactive = higher.

How the values were obtained:
Experiment in all cases: NCI anticancer screen, dose series, 48 h
KM12 = tested on: KM12
EKVX = tested on: EKVX
COLO 205 = tested on: COLO 205
NCI-H460 = tested on: NCI-H460
SNB-19 = tested on: SNB-19
SF-268 = tested on: SF-268
UO-31 = tested on: UO-31
RPMI-8226 = tested on: RPMI-8226
IGROV-1 = tested on: IGROV-1
CCRF-CEM = tested on: CCRF-CEM
HCT-15 = tested on: HCT-15
SN12C = tested on: SN12C
SK-MEL-28 = tested on: SK-MEL-28
SW-620 = tested on: SW-620
U-251 = tested on: U-251
SK-MEL-5 = tested on: SK-MEL-5
NCI-H23 = tested on: NCI-H23
OVCAR-8 = tested on: OVCAR-8
OVCAR-3 = tested on: OVCAR-3
HT-29 = tested on: HT-29

CC1(C23CC4CC(CC(C4)C2)C3)n2c(=O)n(-c3ccccc3)c(=O)n2C1(C)C12CC3CC(CC(C3)C1)C2 (stereo not given)
GI50 (KM12): > 100 µM (inactive)
GI50 (EKVX): 91.2 µM (inactive)
GI50 (COLO 205): > 100 µM (inactive)
GI50 (NCI-H460): > 100 µM (inactive)
GI50 (SNB-19): > 100 µM (inactive)
GI50 (SF-268): > 100 µM (inactive)
GI50 (UO-31): > 100 µM (inactive)
GI50 (RPMI-8226): 89.7 µM (inactive)
GI50 (IGROV-1): > 100 µM (inactive)
GI50 (CCRF-CEM): > 100 µM (inactive)
GI50 (HCT-15): > 100 µM
GI50 (SN12C): > 100 µM (inactive)
GI50 (SK-MEL-28): > 100 µM (inactive)
GI50 (SW-620): > 100 µM (inactive)
GI50 (U-251): > 100 µM (inactive)
GI50 (SK-MEL-5): > 100 µM (inactive)
GI50 (NCI-H23): > 100 µM (inactive)
GI50 (OVCAR-8): > 100 µM (inactive)
GI50 (OVCAR-3): > 100 µM (inactive)
GI50 (HT-29): > 100 µM (inactive)

C=CCn1c2ccccc2c2c(C)c3cnccc3c(C)c21
GI50 (KM12): 4.38 µM (inactive)
GI50 (EKVX): 12.1 µM (inactive)
GI50 (COLO 205): 6.4 µM (inactive)
GI50 (NCI-H460): 4.47 µM (inactive)
GI50 (SNB-19): 12.9 µM (inactive)
GI50 (SF-268): 7.98 µM (inactive)
GI50 (UO-31): 4.39 µM (inactive)
GI50 (RPMI-8226): 3.61 µM (inactive)
GI50 (IGROV-1): 8.75 µM (inactive)
GI50 (CCRF-CEM): 4.12 µM (inactive)
GI50 (HCT-15): 6.92 µM
GI50 (SN12C): 9.1 µM (inactive)
GI50 (SK-MEL-28): 14.8 µM (inactive)
GI50 (SW-620): 6.61 µM (inactive)
GI50 (U-251): 11.2 µM (inactive)
GI50 (SK-MEL-5): 6.82 µM (inactive)
GI50 (NCI-H23): 6.95 µM (inactive)
GI50 (OVCAR-8): 5.53 µM (inactive)
GI50 (OVCAR-3): 11.1 µM (inactive)
GI50 (HT-29): 8.93 µM (inactive)

CC1=C2C(O)C(C(C)C(=O)NCC(C)C)CCC2(C)C=CC1=O (stereo not given)
GI50 (KM12): > 100 µM (inactive)
GI50 (EKVX): > 100 µM (inactive)
GI50 (COLO 205): > 100 µM (inactive)
GI50 (NCI-H460): > 100 µM (inactive)
GI50 (SNB-19): > 100 µM (inactive)
GI50 (SF-268): > 100 µM (inactive)
GI50 (UO-31): > 100 µM (inactive)
GI50 (RPMI-8226): > 100 µM (inactive)
GI50 (IGROV-1): > 100 µM (inactive)
GI50 (CCRF-CEM): > 100 µM (inactive)
GI50 (HCT-15): > 100 µM
GI50 (SN12C): > 100 µM (inactive)
GI50 (SK-MEL-28): > 100 µM (inactive)
GI50 (SW-620): > 100 µM (inactive)
GI50 (U-251): > 100 µM (inactive)
GI50 (SK-MEL-5): > 100 µM (inactive)
GI50 (NCI-H23): > 100 µM (inactive)
GI50 (OVCAR-8): > 100 µM (inactive)
GI50 (OVCAR-3): > 100 µM (inactive)
GI50 (HT-29): > 100 µM (inactive)

Cn1ccnc1Sc1ccc(/C=N/NC(=O)c2ccccc2O)cc1[N+](=O)[O-]
GI50 (KM12): > 100 µM (inactive)
GI50 (EKVX): 94 µM (inactive)
GI50 (COLO 205): 22.2 µM (inactive)
GI50 (NCI-H460): 69.5 µM (inactive)
GI50 (SNB-19): > 100 µM (inactive)
GI50 (SF-268): 48.8 µM (inactive)
GI50 (UO-31): 79.1 µM (inactive)
GI50 (RPMI-8226): 0.0723 µM (active)
GI50 (IGROV-1): 35.1 µM (inactive)
GI50 (CCRF-CEM): 37.6 µM (inactive)
GI50 (HCT-15): 39.6 µM
GI50 (SN12C): 55 µM (inactive)
GI50 (SK-MEL-28): > 100 µM (inactive)
GI50 (SW-620): > 100 µM (inactive)
GI50 (U-251): 66.4 µM (inactive)
GI50 (SK-MEL-5): 55.7 µM (inactive)
GI50 (NCI-H23): 56.9 µM (inactive)
GI50 (OVCAR-8): > 100 µM (inactive)
GI50 (OVCAR-3): > 100 µM (inactive)
GI50 (HT-29): 33.7 µM (inactive)

CCCc1nc(NC#N)nc(C(=O)NC23CC4CC(CC(C4)C2)C3)c1C
GI50 (KM12): > 100 µM (inactive)
GI50 (EKVX): > 100 µM (inactive)
GI50 (COLO 205): > 100 µM (inactive)
GI50 (NCI-H460): > 100 µM (inactive)
GI50 (SNB-19): > 100 µM (inactive)
GI50 (SF-268): > 100 µM (inactive)
GI50 (UO-31): > 100 µM (inactive)
GI50 (RPMI-8226): > 100 µM (inactive)
GI50 (IGROV-1): > 100 µM (inactive)
GI50 (CCRF-CEM): > 100 µM (inactive)
GI50 (HCT-15): > 100 µM
GI50 (SN12C): > 100 µM (inactive)
GI50 (SK-MEL-28): > 100 µM (inactive)
GI50 (SW-620): > 100 µM (inactive)
GI50 (U-251): > 100 µM (inactive)
GI50 (SK-MEL-5): > 100 µM (inactive)
GI50 (NCI-H23): > 100 µM (inactive)
GI50 (OVCAR-8): > 100 µM (inactive)
GI50 (OVCAR-3): > 100 µM (inactive)
GI50 (HT-29): > 100 µM (inactive)
